Measurements: ChEMBL document CHEMBL4270497, “Recent advances (2015-2016) in anticancer hybrids” (Eur J Med Chem, 2017)
≈ marks a conversion by molar mass, not a printed value. Values belong to the molecule of their own block, whether it stands above or below them.

Columns and labels:
[1] = system: A549; test: Cytotoxicity in human A549 cells assessed a reduction in cell viability incubated for 48 hrs by MTT assay; format: functional, cell-based; details: A549, 48 h
[2] = system: U-87 MG; test: Cytotoxicity in human U87MG cells assessed as reduction in cell viability incubated for 48 hrs by MTT assay; format: functional, cell-based, U-87MG ATCC
[3] = system: A549; test: Cytotoxicity in human A549 cells assessed as reduction in cell viability incubated for 48 hrs by MTT assay; format: functional, cell-based; details: A549, 48 h
[4] = system: PC-3; test: Cytotoxicity in human PC3 cells assessed as reduction in cell viability incubated for 48 hrs by MTT assay; format: functional, cell-based; details: PC-3, 48 h
[5] = system: HT-29; test: Cytotoxicity in human HT-29 cells assessed as reduction in cell viability incubated for 48 hrs by MTT assay; format: functional, cell-based; details: HT-29, 48 h
[6] = biological target: Vascular endothelial growth factor receptor 1 (Homo sapiens, UniProt P17948); test: Inhibition of VEGFR1 (unknown origin) using KKKSPGEYVNIEFG substrate and [33P-g-ATP] incubated for 30 mins
[7] = system: HUVEC; test: Inhibition of VEGF-induced cell migration of HUVEC assessed as wound closure level at cytotoxic IC50 incubated for 24 hrs (reference value: 100%); format: functional, Homo sapiens; design: scale not given: the % may be the effect or the level left
[8] = system: MCF7; test: Anticancer activity against human MCF7 cells assessed as reduction in cell viability incubated for 48 hrs by MTT assay; format: functional, cell-based; details: MCF7, 48 h
[9] = system: HL-60; test: Anticancer activity against human HL60 cells assessed as reduction in cell viability incubated for 48 hrs by MTT assay; format: functional, cell-based; details: HL-60, 48 h
[10] = system: LS180; test: Inhibition of P-gp in human LS180 cells assessed as reduction in doxorubicin cytotoxic IC50 level at 50 uM by MTT assay; format: functional
[11] = system: HCT-116; test: Antiproliferative activity against human HCT116 cells incubated for 48 hrs by MTT assay; format: functional, cell-based; details: HCT-116, 48 h
[12] = system: A549; test: Antiproliferative activity against human A549 cells incubated for 48 hrs by MTT assay; format: functional, cell-based; details: A549, 48 h
[13] = system: MCF7; test: Antiproliferative activity against human MCF7 cells incubated for 48 hrs by MTT assay; format: functional, cell-based; details: MCF7, 48 h
[14] = system: HeLa; test: Antiproliferative activity against human HeLa cells incubated for 48 hrs by MTT assay; format: functional, cell-based
[15] = system: DU-145; test: Antiproliferative activity against human DU145 cells incubated for 48 hrs by MTT assay; format: functional, cell-based; details: DU-145, 48 h
[16] = system: HT-29; test: Antiproliferative activity against human HT-29 cells incubated for 48 hrs by MTT assay; format: functional, cell-based; details: HT-29, 48 h
[17] = system: HEK293; test: Antiproliferative activity against HEK293 cells incubated for 48 hrs by MTT assay; format: cell-based; details: Homo sapiens, HEK293, 48 h
[18] = biological target: Tyrosinase (Agaricus bisporus, UniProt O42713); test: Inhibition of diphenolase activity of mushroom tyrosinase pre-incubated for 30 mins before L-DOPA substrate addition and measured after 1 min by spectrophotometric assay
[19] = system: Panel NCI-60 (60 carcinoma cell lines); test: Growth inhibition of human NCI60 cells incubated for 48 hrs by SRB assay; format: functional
[20] = system: MDA-MB-231; test: Growth inhibition of human MDA-MB-231 cells at 10 uM; format: functional; details: read-out: GI
[21] = system: A498; test: Growth inhibition of human A498 cells at 10 uM; format: functional; details: read-out: GI
[22] = system: KB; test: Cytotoxicity in human KB cells assessed as reduction in cell viability; format: functional, cell-based

Vascular endothelial growth factor receptor 1, sequence (P17948 whole entry): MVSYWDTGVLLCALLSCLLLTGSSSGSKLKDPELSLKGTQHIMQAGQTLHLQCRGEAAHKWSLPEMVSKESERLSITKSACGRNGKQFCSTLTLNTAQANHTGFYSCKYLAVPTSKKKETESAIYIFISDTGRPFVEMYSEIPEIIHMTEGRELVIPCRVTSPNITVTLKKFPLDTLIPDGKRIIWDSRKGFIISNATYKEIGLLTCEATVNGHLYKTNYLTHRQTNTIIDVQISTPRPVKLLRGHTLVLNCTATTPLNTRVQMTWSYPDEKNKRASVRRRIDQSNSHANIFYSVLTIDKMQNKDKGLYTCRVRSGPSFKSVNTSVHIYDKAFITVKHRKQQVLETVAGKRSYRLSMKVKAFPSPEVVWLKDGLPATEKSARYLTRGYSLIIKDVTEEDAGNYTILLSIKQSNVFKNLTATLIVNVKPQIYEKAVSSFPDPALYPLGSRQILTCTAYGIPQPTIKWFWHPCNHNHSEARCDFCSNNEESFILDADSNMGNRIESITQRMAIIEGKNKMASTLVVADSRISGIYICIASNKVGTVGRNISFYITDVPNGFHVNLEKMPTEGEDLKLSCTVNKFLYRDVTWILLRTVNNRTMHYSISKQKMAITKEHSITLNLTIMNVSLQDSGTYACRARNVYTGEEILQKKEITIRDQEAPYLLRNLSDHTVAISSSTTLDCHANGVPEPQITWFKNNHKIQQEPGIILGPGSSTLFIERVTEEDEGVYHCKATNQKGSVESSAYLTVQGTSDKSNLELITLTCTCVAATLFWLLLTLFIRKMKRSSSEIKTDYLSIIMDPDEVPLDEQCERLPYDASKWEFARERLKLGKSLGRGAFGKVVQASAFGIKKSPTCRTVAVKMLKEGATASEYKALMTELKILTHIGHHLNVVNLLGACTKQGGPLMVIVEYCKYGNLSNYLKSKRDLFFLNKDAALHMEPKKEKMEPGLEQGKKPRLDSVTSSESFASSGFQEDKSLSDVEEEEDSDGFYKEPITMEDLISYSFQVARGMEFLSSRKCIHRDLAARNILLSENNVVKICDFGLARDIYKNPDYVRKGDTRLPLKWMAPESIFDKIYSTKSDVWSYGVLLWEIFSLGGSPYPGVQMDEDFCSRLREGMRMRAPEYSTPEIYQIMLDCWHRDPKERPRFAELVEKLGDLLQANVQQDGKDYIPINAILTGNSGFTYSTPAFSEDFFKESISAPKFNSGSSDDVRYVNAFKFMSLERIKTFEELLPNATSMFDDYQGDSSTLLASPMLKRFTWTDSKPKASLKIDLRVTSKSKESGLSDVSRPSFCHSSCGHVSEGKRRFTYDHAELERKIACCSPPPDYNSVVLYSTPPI
Tyrosinase, sequence (O42713 whole entry): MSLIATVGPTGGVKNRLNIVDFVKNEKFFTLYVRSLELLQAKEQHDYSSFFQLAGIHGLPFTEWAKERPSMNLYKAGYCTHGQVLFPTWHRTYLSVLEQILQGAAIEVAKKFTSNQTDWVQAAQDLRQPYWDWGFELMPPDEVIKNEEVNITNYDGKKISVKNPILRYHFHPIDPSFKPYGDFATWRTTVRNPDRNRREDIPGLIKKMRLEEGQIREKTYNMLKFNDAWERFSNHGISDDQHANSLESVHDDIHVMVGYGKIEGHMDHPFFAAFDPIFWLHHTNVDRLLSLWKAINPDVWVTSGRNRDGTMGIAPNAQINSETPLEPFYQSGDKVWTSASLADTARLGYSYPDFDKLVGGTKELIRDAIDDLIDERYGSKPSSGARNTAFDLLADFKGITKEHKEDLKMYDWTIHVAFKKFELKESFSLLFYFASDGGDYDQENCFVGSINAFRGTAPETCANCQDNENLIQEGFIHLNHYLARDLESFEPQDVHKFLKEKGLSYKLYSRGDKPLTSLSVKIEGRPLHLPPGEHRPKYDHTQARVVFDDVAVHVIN

Structure (SMILES): COc1cc(-c2nc(/C=C/C(=O)c3ccc(F)cc3)cc3c2[nH]c2ccccc23)ccc1F
IC50 [1]: < 10 µM

Structure (SMILES): COc1ccc(Cn2cc(C(=O)c3cn(-c4ccccc4)nc3-c3ccc(F)cc3)nn2)cc1OC
IC50 [2]: 3760 nM | IC50 [3]: 2130 nM | IC50 [4]: 5.87 µM | IC50 [5]: 2540 nM

IC50 [6]: 1900 nM
Structure (SMILES): O=C(Nc1ccc(F)cc1)c1sccc1Nc1cccc2c1OCCO2
Activity [7]: 20%

IC50 [8]: 16.2 µM | IC50 [9]: 15.2 µM
Structure (SMILES): O=C(c1ccccc1)c1ccc2[nH]c(-c3c4ccccc4cc4ccccc34)nc2c1

Structure (SMILES): COc1ccc(-c2nn(-c3ccccc3)cc2C(=O)c2cn(Cc3ccc(OC)c(OC)c3)nn2)cc1
IC50 [2]: 970 nM | IC50 [3]: 2240 nM | IC50 [4]: 3.52 µM | IC50 [5]: 1780 nM

IC50 [6]: 2500 nM
Structure (SMILES): O=C(Nc1ccc(F)cc1)c1sccc1Nc1cccc2c1OCO2
Activity [7]: 20% | Ratio IC50 [10]: 14

Structure (SMILES): O=C(/C=C/c1cc2c([nH]c3ccccc32)c(-c2ccc(F)cc2)n1)c1ccc([N+](=O)[O-])cc1
IC50 [1]: < 10 µM

IC50 [11]: 510 to 1290 nM | IC50 [12]: 0.51 to 1.29 µM | IC50 [13]: 510 to 1290 nM | IC50 [14]: 510 to 1290 nM
Structure (SMILES): COc1ccc(Nc2ncccc2C(=O)/C=C/Nc2ccc3[nH]ccc3c2)cc1

Structure (SMILES): COc1ccc(-c2nc(/C=C/C(=O)c3cc(OC)c(OC)c(OC)c3)cc3c2[nH]c2ccccc23)cc1OC
IC50 [1]: < 10 µM

Structure (SMILES): COc1cc(-c2nc(/C=C/C(=O)c3ccc(N)cc3)cc3c2[nH]c2ccccc23)ccc1F
IC50 [1]: < 10 µM

IC50 [15]: 3.1 µM | IC50 [12]: 4.1 µM | IC50 [16]: 3.7 µM
Structure (SMILES): COc1ccc(Cn2cc(C(=O)c3cccnc3Nc3ccc(F)cc3)nn2)cc1OC
IC50 [17]: 64.3 µM

IC50 [18]: 4.72 µM
Structure (SMILES): CN(C)c1ccc(C2CC(c3cc4ccccc4o3)=NN2C(=O)Nc2ccc(Cl)cc2)c2ccccc12 (configuration not stated)

Structure (SMILES): COc1ccc(-c2nc(/C=C/C(=O)c3ccc(F)cc3)cc3c2[nH]c2ccccc23)cc1OC
IC50 [1]: < 10 µM

Structure (SMILES): CC(=O)N1N=C(c2ccc[nH]2)CC1c1cn(-c2ccccc2)nc1-c1cc2ccccc2o1 (configuration not stated)
GI50 [19]: 1000 to 2710 nM

Structure (SMILES): COc1cc(-c2nc(/C=C/C(=O)c3ccc(F)cc3)cc3c2[nH]c2ccccc23)cc(OC)c1OC
IC50 [1]: < 10 µM

IC50 [15]: 3 µM | IC50 [12]: 3.9 µM | IC50 [16]: 3.1 µM
Structure (SMILES): COc1cc(Cn2cc(C(=O)c3cccnc3Nc3ccc(F)cc3)nn2)cc(OC)c1
IC50 [17]: 75.2 µM

Structure (SMILES): COc1ccc(-c2nc(/C=C/C(=O)c3ccc(N)cc3)cc3c2[nH]c2ccccc23)cc1OC
IC50 [1]: < 10 µM

Structure (SMILES): COc1cc(-c2nc(/C=C/C(=O)c3ccc(O)cc3)cc3c2[nH]c2ccccc23)cc(OC)c1OC
IC50 [1]: < 10 µM

Structure (SMILES): Cc1cc(=O)oc2cc(Oc3nc(-c4ccccc4)cn4c(-c5ccccc5)cnc34)ccc12
inhibition of growth at 10 µM [20]: 93% | inhibition of growth at 10 µM [21]: 90%

Structure (SMILES): COc1ccc(C(=O)/C=C/c2cc3c([nH]c4ccccc43)c(-c3cc(OC)c(OC)c(OC)c3)n2)cc1
IC50 [1]: < 10 µM

Structure (SMILES): O=C(/C=C/c1cc2c([nH]c3ccccc32)c(-c2ccc(F)cc2)n1)c1ccc(F)cc1
IC50 [1]: < 10 µM

Structure (SMILES): CC[C@]1(O)C[C@H]2CN(CCc3c([nH]c4ccccc34)[C@@](C(=O)OC)(c3cc4c(cc3OC)N(C=O)[C@H]3[C@@](O)(C(=O)OC)[C@H](OC(C)=O)[C@]5(CC)C=CCN6CC[C@]43[C@@H]65)C2)C1 [VINCRISTINE]
IC50 [22]: 0.46 µg/mL (≈ 0.558 µM)
